# Data from patent US20260207627A1, “PHYTOECDYSONES FOR USE IN THE TREATMENT OF INFLAMMATORY RESPIRATORY DISEASES” (BIOPHYTIS, priority 2022, published 2026).
# Columns and labels:
# murine bronchial ring [1] = experiment: Ex vivo bronchial ring contraction (Mulvany myograph) after chronic treatment, serotonin-induced bronchoconstriction; assay type: in vivo, mouse; settings: asthmatic mice
# Procedure: (§1) Seven-week old mice were sensitized by cutaneous route to house dust mite (HDM) extracts on DO, 7, 14 and 21. After this skin sensitization phase to the allergen, the mice receive the allergen by the nasal route (challenge phase) on D27, 28, 29, 34, 35 and 36 to induce bronchial exacerbation. This severe allergic asthma model has been characterized as mimicking human pathology (Dilasser et al. Thorax 2021).
# (§2) BIG101 (batch RL11T1204A0) was administered to the mice in drinking water 7 days a week, at a dose of 50 mg/kg/day. The drinking water containing BI0101 was replaced twice weekly until the animals were sacrificed.
# (§3) The evaluation of the effect of chronic administration of BI0101 treatment on ex vivo murine bronchial ring contraction was carried out in an isolated organ chamber (isometric tension measurement, Mulvany myograph, DMT, Hinnerup, Denmark) (André-Grégoire et al., 2018).
# (§4) The bronchi are collected, cleaned, cut into rings and set up in the Mulvany myograph. The rings are pre-stretched and then stimulated with 60 mM KCl until the contractile response amplitude has stabilized (2 or 3 stimulations) before the start of each experimental protocol. […]
# [2] = tested on: mouse model of severe allergic asthma; experiment: Respiratory function by plethysmography (Penh) in response to methacholine; assay type: in vivo
# Procedure: as §1, §2
# In order to study whether the reduction of inflammation in BALF could induce functional improvement after severe asthma induction, respiratory function was evaluated by plethysmography. This technique makes it possible to carry out a longitudinal study of respiratory capacity and also expiratory pause time (Penh) non-invasively. Breathing-induced flow and pressure changes are measured before and after exposure to nebulization with increasing doses of NaCl followed by methacholine. […]
# The pressure variations measured relative to a reference chamber make it possible to define various respiratory parameters such as inspiratory and expiratory pressure peaks and times, and also a unitless parameter referred to as Penh (enhanced Pause) which makes it possible to evaluate bronchoconstriction. Indeed, the Penh value, calculated from the pressure signal in the chamber (Pb), is an important index to obtain, because changes in the Penh value evolve in parallel with those of respiratory resistance and therefore it represents a predictive parameter of changes in resistive properties of the respiratory system (Hamelmann et al., 1997; Bergren, 2001; Onclinx et al., 2003). The following values were calculated from the filtered Pb: the maximum change in Pb during expiration (PEP for “Peak Expiratory Pressure”), the maximum change in Pb during inspiration (PIP for “Peak Inspiratory Pressure”), and the time interval (TR). The Penh value was then calculated as follows: […]
# bronchial ring [3] = experiment: Acute administration in the vessel containing the bronchial ring, contractile response to serotonin; set-up: species or system mouse; settings: p=ns vs internal control without BI0101
# [4] = tested on: mouse model of severe allergic asthma; experiment: Histological analysis of lung sections stained with hematoxylin and eosin; assay type: in vivo; settings: chronic treatment 50 mg/kg/day
# Procedure: as §1, §2
# bronchial ring [5] = experiment: Acute administration in the vessel containing the bronchial ring, contractile response to methacholine; set-up: species or system mouse; settings: p=ns vs internal control without BI0101
# 5-HTT = experiment: Real-time PCR gene expression in bronchi after chronic treatment; assay type: in vivo, mouse; settings: healthy or asthmatic mice, chronic treatment 50 mg/kg/day
# Procedure: as §1, with “([…]” for “(Dilasser”, “2021). BIG101 (batch RL11T1204A0) was administered to the mice in drinking water 7 days a week, at a dose of 50 mg/kg/day. The drinking water containing BI0101 was replaced twice weekly until the animals were sacrificed.” for “2021).”
# 5-HT1A receptor = experiment: as above; assay type: in vivo, mouse; settings: chronic treatment 50 mg/kg/day, D38, p<0.05
# Procedure: (§5) Seven-week old mice were sensitized by cutaneous route to house dust mite (HDM) extracts on DO, 7, 14 and 21. After this skin sensitization phase to the allergen, the mice receive the allergen by the nasal route (challenge phase) on D27, 28, 29, 34, 35 and 36 to induce bronchial exacerbation. This severe allergic asthma model has been characterized as mimicking human pathology ([…] et al. Thorax 2021). BIG101 (batch RL11T1204A0) was administered to the mice in drinking water 7 days a week, at a dose of 50 mg/kg/day. The drinking water containing BI0101 was replaced twice weekly until the animals were sacrificed. On […], the bronchi of healthy non-asthmatic mice (control; n=10), non-asthmatic control mice treated with BI0101 (controls+BIO101; n=10), asthmatic mice (Asthma; n=10) and asthmatic mice treated with BI0101 (Asthma+BIO101; n=10) were collected. After RNA extraction from these tissues (Trizol©, ThermoFisher cat. 15596018), an analysis of serotonin receptor (5-HT1A, 5-HT1B, 5-HT2A, 5-HT2B and 5-HT7) and serotonin transporter (5HTT) expression was evaluated with real-time PCR (TaqManTM, Universal PCR MasterMix, ThermoFisher cat. 4304437). The list of ThermoFisher Scientific commercial test references used for real-time PCR to obtain the results for each of the genes is given in Table 1 below: […]
# 5-HT1B = experiment: as above; assay type: in vivo, mouse; settings: healthy or asthmatic mice, chronic treatment 50 mg/kg/day
# Procedure: as §5
# 5-HT7 = experiment: as above; assay type: in vivo, mouse; settings: healthy or asthmatic mice, chronic treatment 50 mg/kg/day
# Procedure: as §5
# 5-HT2B = experiment: as above; assay type: in vivo, mouse; settings: healthy or asthmatic mice, chronic treatment 50 mg/kg/day
# Procedure: as §5
# 5-HT2A = experiment: as above; assay type: in vivo, mouse; settings: healthy or asthmatic mice, chronic treatment 50 mg/kg/day
# Procedure: as §5
# murine bronchial ring [6] = experiment: Ex vivo bronchial ring contraction (Mulvany myograph) after chronic treatment, methacholine-induced bronchoconstriction; assay type: in vivo, mouse; settings: asthmatic mice
# Procedure: as §1, §2, §3, §4
# [7] = tested on: mouse model of severe allergic asthma; experiment: Bronchoalveolar fluid cellularity; assay type: in vivo
# Procedure: Seven-week old mice were sensitized by cutaneous route to house dust mite (HDM) extracts on DO, 7, 14 and 21. After this skin sensitization phase to the allergen, the mice receive the allergen by the nasal route (challenge phase) on D27, 28, 29, 34, 35 and 36 to induce bronchial exacerbation. This severe allergic asthma model has been characterized as mimicking human pathology ([…] et al. Thorax 2021). BIG101 (batch RL11T1204A0) was administered to the mice in drinking water 7 days a week, at a dose of 50 mg/kg/day. The drinking water containing BI0101 was replaced twice weekly until the animals were sacrificed. On […], sterile PBS (between 200 μL and 1 mL) was administered by the intratracheal route to the mice using a catheter. The bronchoalveolar fluid (BALF) cells and supernatant are retrieved and separated by centrifugation. The total number of cells was counted on Kova slides by optical microscopy. The cellularity of each sample was evaluated by calculating the ratio of the total number of cells counted, divided by the volume of bronchoalveolar fluid. The cellularity represents the infiltrate of immune cells (macrophages, lymphocytes, eosinophils and neutrophils).
# [8] = chronic treatment 50 mg/kg/day in drinking water, D38, Asthma vs Asthma+BIO101 p<0.0001
structure (smiles),measurement,setting,value
"CC(C)(O)CC[C@@H](O)[C@](C)(O)[C@H]1CC[C@@]2(O)C3=CC(=O)[C@@H]4C[C@@H](O)[C@@H](O)C[C@]4(C)[C@H]3CC[C@]12C [BI0101, 20-hydroxyecdysone]",serotonin-induced bronchoconstriction,murine bronchial ring [1]; [8],significantly reduces
same,prevention of exacerbated bronchial airway reactivity (serotonin),"murine bronchial ring [1]; chronic treatment 50 mg/kg/day, Asthma+BIO101 vs Control p=0.9997",completely prevents
same,Penh value,"[2]; asthmatic mice treated with BI0101, 50 mg/kg/day, 40 mg/ml of methacholine",9.81±1.1
same,reduction of the Penh value,"[2]; asthmatic mice treated with BI0101 vs asthmatic mice, 40 mg/ml of methacholine, p<0.05",18.1%
same,"effect on respiratory function (Penh, methacholine aerosol)",[2]; healthy control mice treated with BI0101,does not appear to have an effect
same,contractile response to serotonin,bronchial ring [3],0.29±0.14 mN
same,increase in bronchial muscle mass and epithelial barrier dysfunction associated with severe asthma,[4]; asthmatic mice,appear to be less substantial
same,peribronchial and perivascular inflammation,[4]; asthmatic mice,reduces
same,effect on lung histology,[4]; healthy mice (control),has no effect
same,contractile response to methacholine,bronchial ring [5],0.41±0.25 mN
same,5-HTT (serotonin transporter) gene expression in bronchi,5-HTT,does not induce any modification
same,5-HT1A receptor gene expression decrease in bronchi,5-HT1A receptor; asthmatic mice (asthma+BIO101),−69±3%
same,5-HT1A receptor gene expression decrease in bronchi,5-HT1A receptor; healthy mice (control+BIO101),−49%±12%
same,5-HT1B gene expression in bronchi,5-HT1B,does not induce any modification
same,5-HT7 gene expression in bronchi,5-HT7,does not induce any modification
same,5-HT2B gene expression in bronchi,5-HT2B,does not induce any modification
same,5-HT2A gene expression in bronchi,5-HT2A,does not induce any modification
same,methacholine-induced bronchoconstriction,murine bronchial ring [6]; [8],significantly decreases
same,prevention of exacerbated bronchial airway reactivity (methacholine),"murine bronchial ring [6]; chronic treatment 50 mg/kg/day, Asthma+BIO101 vs Control p=0.0025",does not prevent
same,change of BALF cellularity (inflammation present in BALFs),"[7]; asthmatic mice treated with BI0101 vs asthmatic mice, D38, p=ns",−39.8%
same,BALF cellularity (total number of cells divided by volume of bronchoalveolar fluid),"[7]; control mice treated with BI0101, D38, p=ns vs untreated control",260±64
